Results from patent US12617837B2, “Composition for use in treatment of allergic diseases” (UNIVERSITY OF TSUKUBA, priority 2019, dated 2026).

T1: mouse Clec10a (Mus musculus, UniProt P49300)
T1 construct: an extracellular and transmembrane portions of Clec10a fused to a cytoplasmic portion of CD3; expressed in transfected cells; host or cells: 2B4-NFAT-GFP reporter cells, pMXs-puro retroviral vector
T1 sequence (P49300 57-304 limits assumed): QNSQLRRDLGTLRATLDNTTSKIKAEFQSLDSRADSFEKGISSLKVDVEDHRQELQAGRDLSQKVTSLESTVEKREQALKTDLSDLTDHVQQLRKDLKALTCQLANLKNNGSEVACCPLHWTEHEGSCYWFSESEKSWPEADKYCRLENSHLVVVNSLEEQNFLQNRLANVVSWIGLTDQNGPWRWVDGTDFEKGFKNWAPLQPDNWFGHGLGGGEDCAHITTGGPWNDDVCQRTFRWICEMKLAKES

T2: Clec10a-Fc (Mus musculus, UniProt P49300)
T2 construct: cloning the extracellular region of mouse Clec10a into a pME18S expression vector; made in house; host or cells: HEK293T cells
T2 sequence (P49300 57-304 limits assumed): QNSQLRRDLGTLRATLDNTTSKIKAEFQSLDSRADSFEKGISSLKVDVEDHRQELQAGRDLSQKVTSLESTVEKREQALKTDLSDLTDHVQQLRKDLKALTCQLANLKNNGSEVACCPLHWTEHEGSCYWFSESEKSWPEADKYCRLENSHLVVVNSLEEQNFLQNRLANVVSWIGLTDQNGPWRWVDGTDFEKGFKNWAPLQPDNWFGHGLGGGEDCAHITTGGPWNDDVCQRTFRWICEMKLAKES


Tests used:
[1] = molecular target: T1, mouse Clec10a; assay: Mouse Clec10a-CD3ζ NFAT-GFP reporter cell assay; assay type: cell-based; settings: stimulation with coated plates, 18 hours, flow cytometry
Method: The intracellular region of human CD3ζ was obtained from a vector provided by LL Lanier (University of California, San Francisco). The extracellular region of mouse or human Clec10a or the extracellular region of human Asgr1 was subcloned into a pMXs-puro retroviral vector. 2B4-NFAT-GFP reporter cells were provided from H. Arase (University of Osaka). 2B4-NFAT-GFP reporter cells stably expressing mouse or human Clec10a were made as described previously. The reporter cells were incubated for 18 hours in the presence or absence of anti-Clec10a mAb, Lewis X (GlycoTech), Lewes Y (GlycoTech), galactose (Sigma-Aldrich), glucose (Sigma-Aldrich) or mannose (Sigma-Aldrich). The reporter cells were also cultured on a galactosidase (R & D Systems, 5704 GH or 5549 GH) or glucosidase (R & D Systems, 8329-GH), or Clec10 ligand-coated plate, or an HDM extract-coated plate treated with size-fractionated Clec10a ligand or untreated. Activation of NFAT-GFP was monitored by flow cytometry.
To test whether Clec10a recognized glycosylated proteins contained in HDM, NFAT-GFP reporter cells (Clec10a reporter cells) were made which expressed chimeric fusion proteins inch ling an extracellular and transmembrane portions of Clec10a fused to a cytoplasmic portion of CD3.

[2] = molecular target: T2, Clec10a-Fc; assay: ELISA of Clec10a-Fc binding to glycan-coated plates; settings: plates coated with Lewis X or Lewis Y
Description: A mouse Clec10a chimeric construct (Clec10a-Fc) was made by cloning the extracellular region of mouse Clec10a into a pME18S expression vector containing the Fc region of human IgG1. Clec10a-Fc was transfected into HEK293T cells using Lipofectamine 2000 (Thermo Fisher Scientific) and the medium was then replaced with GIT medium (KOHJIN BIO). Clec10a-Fc was purified from the culture supernatants using protein a agarose (Bio-Rad Laboratories).
An ELISA system with Clec10a applied to glycan-coated plates was constructed by a routine method to study the binding of each glycan with Clec10a. In the ELISA system, with the expectation that a multivalent effect is achieved by binding a plurality of glycans to the polymeric scaffold, the glycans were bound to the polymeric scaffold and presented to Clec10a. […]
A PBS solution containing 1 μg/well, 0.1 μg/well, or 0.01 μg/well of the polymeric scaffold presenting the glycans at the location “Sugar” of the above formula as described above (the modification rate was 20% as per the above formula) was introduced into a 96 well plate, and incubation was performed overnight at room temperature so that the wells were coated with the glycans. […] After 1-hour incubation at room temperature, the unbound Clec10a-Fc was washed, and Clec10a-Fc bound to the plate surface was quantified with peroxidase-labeled anti-Fc antibodies. […]

[3] = molecular target: T2, Clec10a-Fc; assay: Sugar conjugate (glycan) microarray analysis of Clec10a-Fc (Table 7); assay type: binding; settings: for Signal value, Clec10a-Fc: glycan microarray probed with Clec10a-Fc; for Signal value, Clec10a-Fc with EDTA: glycan microarray probed with Clec10a-Fc with EDTA; for Binding of Clec10a-Fc in glycan microarray: Clec10a-Fc 10 μg/mL
Method: A sugar conjugate microarray containing 98 sugar conjugates (Table 3) was prepared according to a known method using a non-contact microarray printing robot (MicroSys 4000; Genomic Solutions).

[4] = test system: human IgG1; assay: Glycan microarray probed with human IgG1 (control of Table 7); assay type: binding
[5] = test system: BMMP; assay: Immunoprecipitation/immunoblot of SHP-1 recruitment to Clec10a in HDM-stimulated BMMP; assay type: cell-based, mouse; settings: BMMP pretreated with Syk inhibitor, HDM extract 100 μg/mL
Method: To analyze association of Clec10a with Syk or SHP-1, BMMP was pretreated in the presence or absence of […] Syk inhibitor IV (Merck, 574714) at 37° C. for 30 minutes and stimulated with an HDM extract (100 μg/mL) at 37° C. for 0 min, 10 min, or 30 min. BMMP was lysed with a 0.2% digitonin buffer and immunoprecipitated with anti-Clec10a mAb. An immune precipitate was transferred onto a PVDF membrane as described above and immunoblotted using anti-Syk antibodies, anti-SHP-1 antibodies, or anti-Clec10a antibodies, and then detected with HRP-labeled anti-rabbit IgG antibodies or goat IgG antibodies. All proteins were detected using enhanced chemiluminescence (Thermo Fisher Scientific).

[6] = test system: skin inflammation against lipopolysaccharides (LPS); assay: LPS-induced skin inflammation, intradermal LPS with polymeric scaffold presenting T antigen; assay type: in vivo, mouse; settings: 50 μg LPS and 20 μg T antigen scaffold intradermal daily, Day 5
Method: It was examined whether one of them, T antigen, could suppress skin inflammation against lipopolysaccharides (LPS). The polymeric scaffolds presenting 50 μg LPS and 20 μg T antigen were intradermally injected in the mouse back daily and the epidermal thickness was observed on Day 5. […] In the Clec10a-knockout mice, the epidermal thickness was equal to or greater than that in the WT.

[7] = test system: lectins (96 lectins of Table 2); assay: Lectin microarray analysis of Clec10a ligand in HDM (Table 6); assay type: binding; settings: for Signal value, Target: Target: Pull-down assay sample from HDM using Clec10a-Fc (Clec10a ligand), signal at each lectin spot of the lectin microarray
Method: Lectin microarrays were made using a non-contact microarray printing robot (MicroSys4000; Genomic Solutions) according to the previous method. Samples were fluorescently labeled with Cy3 Mono-Reactive dye (Ge) and excess Cy3 was removed using a Sephadex g-25 desalting column (Ge). After 10 fold dilution with a probe solution (25 mM Tris-HCl, pH 7.5, 140 mM NaCl) (TBS) containing 2.7 mM KCl, 1 mM CaCl2, 1 mM MnCl2, and 1% Triton X-100, a Cy3-labeled sample was applied to a lectin microarray and incubated at 20° C. overnight. The sample was washed with a probe solution, and a fluorescence image was obtained using an evanescent-field activated fluorescence scanner (Bio-Rad scan 200, Rexxam Co. Ltd.). Lectin signals in triplicate spots were averaged for each protein sample and normalized to an average value of 96 lectins.

Molecule	GFP expression in mouse Clec10a reporter cells [1]	Signal value, Clec10a-Fc [3]	Signal value, Clec10a-Fc with EDTA [3]	Signal value, human IgG1 [4]	Signal value, Target [7]	other results
CC(=O)N[C@@H]1[C@@H](O[C@@H]2O[C@@H](C)[C@@H](O)[C@@H](O)[C@@H]2O)[C@H](O[C@@H]2O[C@H](CO)[C@H](O)[C@H](O)[C@H]2O)[C@@H](CO)O[C@H]1O [Lewis X, reference compound]	expressed GFP					
CC(=O)N[C@@H]1[C@@H](O[C@@H]2O[C@@H](C)[C@@H](O)[C@@H](O)[C@@H]2O)[C@H](O[C@@H]2O[C@H](CO)[C@H](O)[C@H](O)[C@H]2O[C@@H]2O[C@@H](C)[C@@H](O)[C@@H](O)[C@@H]2O)[C@@H](CO)O[C@H]1O [Lewis Y, reference compound]	did not respond	0	0	0		Binding of Clec10a-Fc to coated plates (ELISA) [2]: not bound
COc1ccc(-c2cc3nccn3c(Nc3ncccc3C(N)=O)n2)cc1OC [Syk inhibitor IV]						Recruitment of HDM-induced SHP-1 to Clec10a [5]: suppressed the recruitment of HDM-induced SHP-1 to Clec10a
CC(=O)N[C@H]1C(O)O[C@H](CO)[C@H](O)[C@@H]1O[C@@H]1O[C@H](CO)[C@H](O)[C@H](O)[C@H]1O (stereo partly drawn) [T antigen, Galβ(1-3)GalNAc]	activated Clec10a in a dose-dependent manner					Binding of Clec10a-Fc in glycan microarray [3]: binds; Epidermal thickness ([6]; Clec10a knockout mice): epidermal thickness suppressive effect of the T antigen was not observed; Epidermal thickness ([6]; WT mice): increase in thickness of the skin by LPS was suppressed
OC[C@H]1O[C@@H](O)[C@@H](O)[C@@H](O)[C@@H]1O [βMan]		0	0	0		
Chitobiose		0	0	0		
Clec10a						Binding to lectins in lectin microarray ([7]; Cy3-labeled sample): most strongly bound to the lectins of Maclura pomifera (MPA)
Galβ 1-3(Fucα 1-4)GlcNAcβ 1-PAA [LeA]	activated Clec10a in a dose-dependent manner	5532	0	0		
Galβ.1-4(Fucα 1-3)GlcNAcβ 1-PAA [LeX]	activated Clec10a in a dose-dependent manner	2535	0	0		
PHAL		0	0	0	0	
rGal7		0	0	0	0	
rMalectin		0	0	0	0	
αGalNAc [Tn antigen]		682	0	0		Binding of Clec10a-Fc in glycan microarray [3]: binds
PNA (protein, UniProt P02872 24-273, looked up) Galactose-binding lectin: AETVSFNFNSFSEGNPAINFQGDVTVLSNGNIQLTNLNKVNSVGRVLYAMPVRIWSSATGNVASFLTSFSFEMKDIKDYDPADGIIFFIAPEDTQIPAGSIGGGTLGVSDTKGAGHFVGVEFDTYSNSEYNDPPTDHVGIDVNSVDSVKTVPWNSVSGAVVKVTVIYDSSTKTLSVAVTNDNGDITTIAQVVDLKAKLPERVKFGFSASGSLGGRQIHLIRSWSFTSTLITTTRRSIDNNEKKIMNMASA					10699	
rPAIL (protein, UniProt Q05097 2-122, looked up) PA-I galactophilic lectin: AWKGEVLANNEAGQVTSIIYNPGDVITIVAAGWASYGPTQKWGPQGDREHPDQGLICHDAFCGALVMKIGNSGTIPVNTGLFRWVAPNNVQGAITLIYNDVPGTYGNNSGSFSVNIGKDQS		0	0	0	0	
AAL (protein, UniProt P18891 2-313, looked up) Fucose-specific lectin: PTEFLYTSKIAAISWAATGGRQQRVYFQDLNGKIREAQRGGDNPWTGGSSQNVIGEAKLFSPLAAVTWKSAQGIQIRVYCVNKDNILSEFVYDGSKWITGQLGSVGVKVGSNSKLAALQWGGSESAPPNIRVYYQKSNGSGSSIHEYVWSGKWTAGASFGSTVPGTGIGATAIGPGRLRIYYQATDNKIREHCWDSNSWYVGGFSASASAGVSIAAISWGSTPNIRVYWQKGREELYEAAYGGSWNTPGQIKDASRPTPSLPDTFIAANSSGNIDISVFFQASGVSLQQWQWISGKGWSIGAVVPTGTPAGW					7508	
